Experiments:
[1] = target: T1, peripheral benzodiazepine receptor (PBR) (Rattus norvegicus, UniProt P16257); assay: In-house PBR binding assay ([3H]PK11195, rat heart mitochondrial membranes); conditions: in-house radioligand-binding assay
T1 construct: CBR and PBR were obtained from rat brain and heart membrane-fractions, respectively; from tissue; host or cells: Wistar rat heart membranes

[2] = test system: human breast cell line MDA-MB-231; assay: Growth inhibitory MTT assay, MDA-MB-231; format: cell-based; conditions: 72 hours, treated over control
Experimental: (§1) Growth inhibitory activity of ECO-4601 (Compound 1) and other dibenzodiazepinone analogs was evaluated on a panel of 4 human tumor cell lines: the human uterine sarcoma MES-SA and its doxorubicin-resistant P-glycoprotein over-expressing variant, MES-SA/DX5 as well as non-aggressive and highly aggressive human breast cell lines, MCF-7 and MDA-MB-231, respectively. These four cell lines were obtained from the American Type Culture Collection (Manassas, Va.) and cultured in RPMI plus 10% fetal bovine serum (FBS) and maintained at 37° C. with 5% CO2.
(§2) Exponentially growing cells (5,000 cells per well time; cell number determined with a hemocytometer) were seeded in 96-well flat-bottom plates and allowed to grow overnight. Cells were then incubated for 72 hours with three different concentrations of ECO-4601 or analogs: 30,10, and 3 μM. The in vitro growth inhibitory activity was determined by a commercial MTT assay. All measurements were done in quadruplicate and each experiment was performed 2-3 times. The lower the value, the more cytotoxic is the compound.

[3] = test system: MES-SA/DX5 (doxorubicin-resistant P-glycoprotein over-expressing variant); assay: Growth inhibitory MTT assay, MES-SA/DX5; format: cell-based, human; conditions: 72 hours, treated over control
Experimental: as §1, §2

[4] = test system: human breast cell line MCF-7; assay: Growth inhibitory MTT assay, MCF-7; format: cell-based; conditions: 72 hours, treated over control
Experimental: as §1, §2

[5] = test system: human uterine sarcoma MES-SA; assay: Growth inhibitory MTT assay, MES-SA; format: cell-based; conditions: 72 hours, treated over control
Experimental: as §1, §2

PBR = target: T2, PBR (Rattus norvegicus, UniProt P16257); assay: In vivo PBR occupancy by PET (11C-(R)-PK11195) following IP administration; conditions: 30 mg/kg IP
T2 construct: from tissue; host or cells: orthotopic rat C6 glioma in Sprague-Dawley rats, in vivo
Experimental: (R)-1-(2-chlorophenyl)-N-methyl-N-(1-methyl-propyl)-3-isoquinoline carboxamide (R N-desmethyl PK11195), the precursor for the radioisotope-labeled (R) —PK11195, was purchased from ABX (Radeburg, Germany). The synthesis of ^11C-(R)-PK11195 was accomplished by a modification of the method of Camsonne et al. (J. Label. Compd. Radiopharm., 21: 985-991,1984). Briefly, ^11C-methyl iodide (^11C—CH3I) was transferred by a stream of nitrogen gas at a flow rate of 10 ml/min into a reaction medium containing 1 mg or R—N-desmethyl PK11195 previously dissolved in 0.5 mL of dimethylsulfoxide (DMSO) and about 20 mg of sodium hydroxide. The reaction was initiated at room temperature, with a bubbling of the ^11C—CH3I being continued over a 5 minute period. After bubbling was complete, the reaction mixture was left standing for 5 minutes. Purification was performed by high pressure liquid chromatography (HPLC) using a reverse-phase C18 column and a methanol:ammonium formate (20 mM) (80:20) mixture and a mobile phase at a flow rate of 3 mL/min. ^11C—(R) —PK11195 was eluted at 11 minutes and obtained with a specific radioactivity of […].
In vivo PET studies were performed 14 days post tumor implantation. […] Attenuation correction factors, for each rat (total of 7 animals), were determined using a 10 min ^57Co transmission scan acquired immediately prior to the dynamic scan. […]

Compound | IC50 [1] [nM] | % T/C at 10 μM [2] [%] | % T/C at 10 μM [3] [%] | % T/C at 10 μM [4] [%] | % T/C at 10 μM [5] [%] | reduction of PBR occupancy for 11C-(R)-PK11195 binding, average (PBR) [%]
CC(C)=CCC/C(C)=C/CC/C(C)=C/CN1C(=O)c2cccc(O)c2Nc2c1cc(O)c(C1CCCO1)c2O (stereo not drawn) [Compound 100] | 10 | 43 | 86 | 38 | 18 | 
10-farnesyl-4,6,8-trihydroxy-5,10-dihydrodibenzo[b,e][1,4]diazepin-11-one [Compound 1] |  |  |  |  |  | 31

— patent publication US20090062255A1, “TUMOR-TARGETING EVALUATION METHODOLOGY AND COMPOUNDS RELATED THERETO” (THALLION PHARMACEUTICALS INC., priority 2007, published 2009)
